Data published in ChEMBL document CHEMBL1764947, “Symmetric double-headed aminopyridines, a novel strategy for potent and membrane-permeable inhibitors of neuronal nitric oxide synthase” (J Med Chem, 2011).

Assays:
[1] = target: Nitric oxide synthase 1 (Rattus norvegicus, UniProt P29476); test: Inhibition of rat recombinant nNOS expressed in Escherichia coli by UV-vis spectrometric analysis
[2] = target: T1, Nitric oxide synthase 3 (Bos taurus, UniProt P29473); test: Inhibition of bovine recombinant eNOS expressed in Escherichia coli by UV-vis spectrometric analysis
T1 sequence (P29473 whole entry): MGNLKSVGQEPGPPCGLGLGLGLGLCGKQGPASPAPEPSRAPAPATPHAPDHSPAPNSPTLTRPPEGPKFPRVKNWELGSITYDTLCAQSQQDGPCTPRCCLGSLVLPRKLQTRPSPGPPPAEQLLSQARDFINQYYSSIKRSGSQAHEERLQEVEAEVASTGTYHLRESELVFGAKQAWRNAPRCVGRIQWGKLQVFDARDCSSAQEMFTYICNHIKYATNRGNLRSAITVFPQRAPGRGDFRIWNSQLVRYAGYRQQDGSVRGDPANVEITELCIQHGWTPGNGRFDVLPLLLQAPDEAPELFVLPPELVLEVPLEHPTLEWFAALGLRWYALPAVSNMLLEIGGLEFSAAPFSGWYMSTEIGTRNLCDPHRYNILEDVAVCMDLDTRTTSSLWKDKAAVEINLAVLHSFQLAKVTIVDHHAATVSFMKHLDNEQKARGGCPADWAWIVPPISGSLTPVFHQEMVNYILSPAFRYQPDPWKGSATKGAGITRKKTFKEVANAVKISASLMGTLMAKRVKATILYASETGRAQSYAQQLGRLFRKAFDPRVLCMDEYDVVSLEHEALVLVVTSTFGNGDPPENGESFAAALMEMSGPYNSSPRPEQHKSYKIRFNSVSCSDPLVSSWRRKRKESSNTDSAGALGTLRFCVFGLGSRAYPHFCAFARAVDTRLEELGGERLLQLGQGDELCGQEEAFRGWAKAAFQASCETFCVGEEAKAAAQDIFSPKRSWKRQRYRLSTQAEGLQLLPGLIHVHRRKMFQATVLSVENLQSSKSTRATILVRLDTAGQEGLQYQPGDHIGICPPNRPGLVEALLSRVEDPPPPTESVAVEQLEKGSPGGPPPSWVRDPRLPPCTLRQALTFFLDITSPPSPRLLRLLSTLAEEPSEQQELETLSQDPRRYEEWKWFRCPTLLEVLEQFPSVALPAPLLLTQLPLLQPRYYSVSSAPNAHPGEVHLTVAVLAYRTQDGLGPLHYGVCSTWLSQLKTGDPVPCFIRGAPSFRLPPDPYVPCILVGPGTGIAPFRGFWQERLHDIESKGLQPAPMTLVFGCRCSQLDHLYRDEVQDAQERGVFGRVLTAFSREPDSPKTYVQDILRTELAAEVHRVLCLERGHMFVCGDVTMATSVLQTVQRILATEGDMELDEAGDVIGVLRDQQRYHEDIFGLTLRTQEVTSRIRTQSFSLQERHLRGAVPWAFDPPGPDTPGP

[3] = target: T2, Nitric oxide synthase, inducible (Mus musculus, UniProt P29477); test: Inhibition of mouse macrophage recombinant iNOS expressed in Escherichia coli by UV-vis spectrometric analysis
T2 sequence (P29477 whole entry): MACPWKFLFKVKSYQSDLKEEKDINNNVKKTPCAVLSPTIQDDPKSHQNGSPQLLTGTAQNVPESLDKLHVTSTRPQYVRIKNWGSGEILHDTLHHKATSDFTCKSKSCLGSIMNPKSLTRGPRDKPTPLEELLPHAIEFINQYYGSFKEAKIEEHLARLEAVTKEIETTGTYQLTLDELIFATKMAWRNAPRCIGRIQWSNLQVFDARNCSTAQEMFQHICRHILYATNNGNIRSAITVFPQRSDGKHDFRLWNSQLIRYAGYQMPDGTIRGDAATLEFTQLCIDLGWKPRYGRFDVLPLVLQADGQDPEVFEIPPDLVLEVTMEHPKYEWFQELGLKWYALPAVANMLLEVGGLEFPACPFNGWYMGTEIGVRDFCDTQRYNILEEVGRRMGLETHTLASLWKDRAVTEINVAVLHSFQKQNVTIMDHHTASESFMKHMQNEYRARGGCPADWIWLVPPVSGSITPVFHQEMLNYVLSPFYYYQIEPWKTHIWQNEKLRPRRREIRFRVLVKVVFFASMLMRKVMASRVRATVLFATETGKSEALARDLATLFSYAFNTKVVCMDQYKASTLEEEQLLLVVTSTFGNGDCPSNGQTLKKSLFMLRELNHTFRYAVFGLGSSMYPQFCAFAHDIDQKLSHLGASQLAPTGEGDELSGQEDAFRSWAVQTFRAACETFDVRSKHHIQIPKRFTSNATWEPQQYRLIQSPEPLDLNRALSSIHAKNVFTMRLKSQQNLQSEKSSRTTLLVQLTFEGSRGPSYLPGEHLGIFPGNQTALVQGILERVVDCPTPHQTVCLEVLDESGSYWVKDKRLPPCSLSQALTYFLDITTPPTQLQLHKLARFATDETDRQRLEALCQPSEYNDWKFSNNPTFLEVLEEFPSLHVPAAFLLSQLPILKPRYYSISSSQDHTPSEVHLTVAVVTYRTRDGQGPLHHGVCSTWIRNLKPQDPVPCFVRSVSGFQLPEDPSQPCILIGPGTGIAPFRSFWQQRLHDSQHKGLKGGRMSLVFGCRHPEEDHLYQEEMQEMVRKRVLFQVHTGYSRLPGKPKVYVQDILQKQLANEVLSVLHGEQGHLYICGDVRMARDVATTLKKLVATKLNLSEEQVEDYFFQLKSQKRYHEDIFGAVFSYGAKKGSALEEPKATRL

[4] = Selectivity ratio of Ki for bovine recombinant eNOS to Ki for rat recombinant nNOS
[5] = Selectivity ratio of Ki for murine macrophage recombinant iNOS to Ki for rat recombinant nNOS

Chain of Nitric oxide synthase 1 (P29476 whole entry): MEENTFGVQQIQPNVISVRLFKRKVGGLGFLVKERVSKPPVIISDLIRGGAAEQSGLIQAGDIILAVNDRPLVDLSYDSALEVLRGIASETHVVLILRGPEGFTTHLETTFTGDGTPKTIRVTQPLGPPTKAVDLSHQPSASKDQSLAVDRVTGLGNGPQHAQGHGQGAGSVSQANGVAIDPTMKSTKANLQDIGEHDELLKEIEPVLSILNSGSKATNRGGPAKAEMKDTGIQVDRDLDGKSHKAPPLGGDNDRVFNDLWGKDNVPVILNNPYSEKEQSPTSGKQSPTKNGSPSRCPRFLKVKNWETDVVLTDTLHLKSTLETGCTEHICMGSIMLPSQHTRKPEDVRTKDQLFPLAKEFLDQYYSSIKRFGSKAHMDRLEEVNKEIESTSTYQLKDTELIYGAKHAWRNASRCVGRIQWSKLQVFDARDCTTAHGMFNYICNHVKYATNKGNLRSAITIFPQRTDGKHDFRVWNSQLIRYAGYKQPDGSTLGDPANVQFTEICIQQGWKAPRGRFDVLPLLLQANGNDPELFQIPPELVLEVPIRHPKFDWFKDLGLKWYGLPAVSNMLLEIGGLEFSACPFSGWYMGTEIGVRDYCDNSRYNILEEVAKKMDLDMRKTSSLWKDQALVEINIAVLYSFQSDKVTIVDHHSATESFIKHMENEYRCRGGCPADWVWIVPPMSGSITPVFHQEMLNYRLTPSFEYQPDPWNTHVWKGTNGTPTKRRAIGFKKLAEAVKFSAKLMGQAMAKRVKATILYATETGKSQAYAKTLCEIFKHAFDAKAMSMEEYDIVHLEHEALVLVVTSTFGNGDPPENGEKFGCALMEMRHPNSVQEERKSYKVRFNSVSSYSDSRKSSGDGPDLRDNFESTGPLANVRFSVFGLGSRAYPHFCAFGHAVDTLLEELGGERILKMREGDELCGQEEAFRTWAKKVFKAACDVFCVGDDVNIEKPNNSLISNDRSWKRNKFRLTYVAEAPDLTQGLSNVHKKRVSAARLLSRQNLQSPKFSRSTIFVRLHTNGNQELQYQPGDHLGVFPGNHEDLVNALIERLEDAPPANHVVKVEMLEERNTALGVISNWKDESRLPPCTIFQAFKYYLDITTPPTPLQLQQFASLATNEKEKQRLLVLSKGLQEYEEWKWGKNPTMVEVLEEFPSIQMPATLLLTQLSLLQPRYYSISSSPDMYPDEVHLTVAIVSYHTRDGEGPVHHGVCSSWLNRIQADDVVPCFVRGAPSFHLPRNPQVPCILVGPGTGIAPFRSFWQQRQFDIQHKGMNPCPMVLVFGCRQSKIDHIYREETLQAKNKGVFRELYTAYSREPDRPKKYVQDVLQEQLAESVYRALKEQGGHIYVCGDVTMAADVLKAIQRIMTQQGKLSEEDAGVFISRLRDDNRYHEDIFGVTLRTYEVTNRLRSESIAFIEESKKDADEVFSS

Compound	Ki [1]	Ki [2]	Ki [3]	Ratio Ki [4]	Ratio Ki [5]
Cc1cc(N)nc(CCc2cc(N)cc(CCc3cc(C)cc(N)n3)c2)c1	0.085 µM	4.95 µM	3.4 µM	58	40
Cc1cc(N)nc(CCc2cncc(CCc3cc(C)nc(N)c3)c2)c1				156	19
Cc1cc(C)nc(NCc2ccc3cc(CNc4cc(C)cc(C)n4)ccc3c2)c1	> 1 µM				
Cc1cc(N)nc(CCc2cccc(CCc3cc(C)nc(N)c3)n2)c1	0.195 µM	20 µM	12.6 µM		
Cc1cc(N)nc(CCc2ccc3cc(CCc4cc(C)cc(N)n4)ccc3c2)c1				7.22	9.42
Cc1cc(N)nc(CCc2ccc3ccc(CCc4cc(C)nc(N)c4)cc3c2)c1	> 1 µM				
Cc1cc(N)nc(CCc2cccc(CCc3cc(C)nc(N)c3)c2)c1				111	71.8
Cc1cc(N)nc(CCc2ccc(CCc3cc(C)cc(N)n3)cc2)c1				24.6	24.8
Cc1cc(N)nc(CCc2ccc3ccc(CCc4cc(C)cc(N)n4)cc3c2)c1				14.9	20.1
Cc1cc(CCc2cccc(CCc3cc(C)nc(N)c3)c2)cc(N)n1	> 1 µM				
Cc1cc(N)nc(CCc2cccc(CCc3cc(C)cc(N)n3)n2)c1				95	48
